Measured values taken from patent publication US20200170254A1, “OXADIAZOLINE COMPOUND AND FORMULATION FOR CONTROLLING HARMFUL ORGANISMS” (Nippon Soda Co., Ltd., priority 2017, published 2020).

Columns and labels:
Format in all cases: in vivo
Aphis gossypii = assay: Efficacy test against Aphis gossypii (Test Example 2); conditions: 144 h, sprayed on cucumber plants with nymphs, 6 days after spraying, read-out: Insect mortality rate
Protocol: (§1) 5 parts of the compound of the present invention, 93.6 parts of dimethylformamide and 1.4 parts of polyoxyethylene alkyl aryl ether were mixed and dissolved to prepare Emulsion (I) including 5% of an active ingredient. For the control, Emulsion (II) was prepared by mixing and dissolving 93.6 parts of dimethylformamide and 1.4 parts of polyoxyethylene alkyl aryl ether.
(§2) An insect mortality rate was calculated by the numerical equation shown below.
(§3) Insect mortality rate (%)={(Number of dead insects)/(Number of sample insects)}×100
Cucumber seedlings were inoculated with nymphs of Aphis gossypii. Emulsion (I) was diluted with water so that the concentration of the compound of the present invention was 125 ppm. Subsequently, the aforementioned diluted liquid was sprayed on the cucumber plants on which the nymphs of Aphis gossypii were parasitic. The aforementioned cucumber plants were then placed in a thermostatic chamber with a temperature of 25° C. and humidity of 60%. Mortality was investigated 6 days after spraying was carried out, and the insect mortality rate of Aphis gossypii was calculated.

Mythimna separata = assay: Efficacy test against Mythimna separata (Test Example 1); conditions: 144 h, corn leaves soaked, second-instar larvae, 6 days after inoculation, read-out: Insect mortality rate
Protocol: as §1, §2, §3
(Test Example 1) Efficacy Test against Mythimna separata Emulsion (I) was diluted with water so that the concentration of the compound of the present invention was 125 ppm. Corn leaves were soaked in the diluted liquid for 30 seconds. Subsequently, the corn leaves were put on Petri dishes, followed by inoculating 5 second-instar larvae of Mythimna separata. The Petri dishes were placed in a thermostatic chamber at a temperature of 25° C. and humidity of 60%. Mortality was investigated 6 days after inoculation, and the insect mortality rate was calculated.

Thrips palmi = assay: Efficacy test against Thrips palmi, spray on cucumber seedlings (Test Example 3); conditions: 168 h, sprayed on cucumber seedlings, 7 days after spraying, read-out: controlling rate
Protocol: as §1
Cucumber seedlings were inoculated with 8 adults of Thrips palmi. Emulsion (I) was diluted with water so that the concentration of the compound of the present invention was 125 ppm. Subsequently, the aforementioned diluted liquid was sprayed on the cucumber seedlings, and then air dried. The number of the parasitic larvae was counted 7 days after spraying. The efficacy of the compounds was evaluated by the controlling rate described below.
Controlling rate (%)={1−(Nt)/(Nc)}×100
In which Nt: number of parasites at the legion spray-treated. • Nc: number of parasites at the legion non-treated (control).

Row | SMILES | mortality at 125 ppm (Aphis gossypii) | mortality at 125 ppm (Mythimna separata) | pest or weed control at 125 ppm (Thrips palmi)
1 | CN1OC2(N=C1NC(C)(C)C)c1ccccc1CCCc1ccccc12 [Compound A-1] | ≥ 80% | – | –
2 | CN1OC2(N=C1N(C)C(C)(C)C)c1ccccc1CCCc1ccccc12 [Compound A-2] | ≥ 80% | – | –
3 | CCN(C1=NC2(ON1C)c1ccccc1COc1ccccc12)C(C)(C)C (stereo not drawn) [a-10] | ≥ 80% | ≥ 80% | ≥ 80%
4 | CN1OC2(N=C1NC(C)(C)C)c1ccccc1COc1ccccc12 (stereo not drawn) [a-11, N-(tert-butyl)-2′-methyl-2′H,6H-spiro[dibenzo[b,e]oxepine-11,5′-[1,2,4]oxadiazol]-3′-amine] | – | ≥ 80% | ≥ 80%
5 | CN1OC2(N=C1N(C)C(C)(C)C)c1ccccc1C=Cc1ccccc12 [a-17] | – | – | ≥ 80%
6 | CCN(C1=NC2(ON1N)c1ccccc1C=Cc1ccccc12)C(C)(C)C [a-18] | – | ≥ 80% | –
7 | CN1OC2(N=C1NC(C)(C)C)c1ccccc1C=Cc1ccccc12 [a-19] | – | ≥ 80% | –
8 | CN1OC2(CC(C)(C)Oc3ccc(F)cc32)N=C1NC(C)(C)C (stereo not drawn) [a-20, N-(tert-butyl)-6-fluoro-2,2,2′-trimethyl-2′H-spiro [chromane-4,5′-[1,2,4]oxadiazol]-3′-amine] | ≥ 80% | ≥ 80% | –
9 | CC(C)(C)NC1=NC2(CCCc3ccccc32)ON1N (stereo not drawn) [a-21] | ≥ 80% | – | –
10 | CN1OC2(Cc3ccccc3Oc3ccccc32)N=C1NC(C)(C)C (stereo not drawn) [a-22, N-(tert-butyl)-2′-methyl-2′H, 11H-spiro[dibenzo[b,f]oxepine-10,5′-[1,2,4]oxadiazol]-3′-amine] | – | – | ≥ 80%
11 | CN1OC2(N=C1N(C)C(C)(C)C)c1ccccc1COc1ccccc12 (stereo not drawn) [a-23] | – | – | ≥ 80%
12 | CC(C)(C)NC1=NC2(CCc3ccccc32)ON1N (stereo not drawn) [a-24] | ≥ 80% | – | –
13 | CN1OC2(CC(c3ccccc3)c3ccccc32)N=C1NC(C)(C)C (stereo not drawn) [a-25] | ≥ 80% | ≥ 80% | ≥ 80%
14 | CN1OC2(CCCOc3ccccc32)N=C1NC(C)(C)C (stereo not drawn) [a-26] | ≥ 80% | – | –
15 | CN1OC2(N=C1NC(C)(C)C)c1ccc(Cl)cc1OCCC2c1ccccc1 (stereo not drawn) [a-29] | – | ≥ 80% | –
16 | CC1CCOc2cc(Cl)ccc2C12N=C(NC(C)(C)C)N(N)O2 (stereo not drawn) [a-30] | – | ≥ 80% | –
17 | Cc1cc2c(s1)CCc1ccccc1C21N=C(NC(C)(C)C)N(C)O1 (stereo not drawn) [a-31] | – | – | ≥ 80%
18 | CN(C1=NC2(ON1N)c1ccccc1CCc1ccccc12)C(C)(C)C [a-35] | – | – | ≥ 80%
19 | CN1OC2(N=C1N(C)C(C)(C)C)c1ccccc1CCc1sccc12 (stereo not drawn) [a-36] | – | – | ≥ 80%
20 | CN1OC2(N=C1N(C)C(C)(C)C)c1ccccc1CCc1sc(Cl)cc12 (stereo not drawn) [a-37] | – | – | ≥ 80%
21 | CCN(C1=NC2(ON1N)c1ccccc1CCc1sc(Cl)cc12)C(C)(C)C (stereo not drawn) [a-38] | – | – | ≥ 80%
